Test results taken from ChEMBL document CHEMBL2331186, “Five new phenolic glycosides from Hedyotis scandens” (Bioorg Med Chem Lett, 2013).
Calls of active or inactive are those of the source. No cut-off for these calls is given here.

What follows are molecules tested on Respiratory syncytial virus (assay: Antiviral activity against Respiratory syncytial virus assessed as reduction of virus-induced cytopathic effect).
Assay type: functional, organism-based

SMILES	Activity
Cc1occc(=O)c1O[C@@H]1O[C@H](CO[C@@H]2OC[C@](O)(CO)[C@H]2O)[C@@H](O)[C@H](O)[C@H]1O	Active
OCCc1cc(O)cc(O[C@@H]2O[C@H](CO)[C@@H](O)[C@H](O)[C@H]2O)c1	Active

What follows are molecules tested on Respiratory syncytial virus (assay: Antiviral activity against Respiratory syncytial virus assessed as reduction of virus-induced cytopathic effect at maximal non-toxic concentration).
Assay type: functional, organism-based

SMILES	Activity
O=C(/C=C/c1ccc(O)c(O)c1)O[C@H](Cc1ccc(O)c(O)c1)C(=O)O	inactive
O=C(O)/C=C/c1ccc(O)c(O)c1	inactive
COC(=O)[C@@H](Cc1ccc(O)c(O)c1)OC(=O)/C=C/c1ccc(OC)c(O)c1	inactive
CCCCOC(=O)[C@@H](Cc1ccc(O)c(O)c1)OC(=O)/C=C/c1ccc(O)c(O)c1	inactive
COC(=O)[C@@H](Cc1ccc(O)c(O)c1)OC(=O)/C=C/c1ccc(O)c(O)c1	inactive
O=C(/C=C/c1ccc(O)c(O)c1)O/C=C\c1ccc(O)c(O)c1	inactive
O=C(/C=C/c1ccc(O)c(O[C@@H]2O[C@H](CO)[C@@H](O)[C@H](O)[C@H]2O)c1)O/C=C\c1ccc(O)c(O)c1	inactive
Cc1occc(=O)c1O[C@@H]1O[C@H](CO[C@@H]2OC[C@](O)(COC(=O)/C=C/c3ccc(O)c(O)c3)[C@H]2O)[C@@H](O)[C@H](O)[C@H]1O	inactive
Cc1occc(=O)c1O[C@@H]1O[C@H](CO[C@@H]2OC[C@](O)(COC(=O)/C=C/c3ccc(O)cc3)[C@H]2O)[C@@H](O)[C@H](O)[C@H]1O	inactive
CCCCOC(=O)[C@@H](Cc1ccc(O)c(O)c1)OC(=O)/C=C/c1ccc(O)c(O[C@@H]2O[C@H](CO)[C@@H](O)[C@H](O)[C@H]2O)c1	inactive
COc1cc(O[C@@H]2O[C@H](CO[C@@H]3OC[C@](O)(COC(=O)/C=C/c4ccc(O)cc4)[C@H]3O)[C@@H](O)[C@H](O)[C@H]2O)cc(OC)c1OC	inactive
COC(=O)[C@@H](Cc1ccc(O)c(O)c1)OC(=O)/C=C/c1ccc(O)c(O[C@@H]2O[C@H](CO)[C@@H](O)[C@H](O)[C@H]2O)c1	inactive
N#C[C@H](O[C@@H]1O[C@H](CO[C@@H]2OC[C@](O)(COC(=O)/C=C/c3ccc(O)cc3)[C@H]2O)[C@@H](O)[C@H](O)[C@H]1O)c1ccccc1	inactive
